This note sets out measurements from PubChem BioAssay AID228 (DTP/NCI, 2004).

In the assay the test system is BDF1 mice, Friend leukemia sc, tumor weight T/C. Put plainly: NCI In Vivo Anticancer Drug Screen. Data for tumor model Friend Virus Leukemia (Solid) (subcutaneous) in B6D2F1 (BDF1) mice. The following applies: endpoint: mean tumor weight, higher = larger tumour. The procedure:
The antitumor activity of compounds was measured in mice bearing transplantable tumors. Survival or tumor size were measured and the results are expressed as the measurement made in the treated group (T) divided by the measurement made in the vehicle treated control group (C). The tumor model used in this assay is Friend Virus Leukemia (Solid) (subcutaneous) in B6D2F1 (BDF1) mice

Setting [1] is: dose: 14.0 mg/kg/injection, schedule: Q01DX011 (ip), vehicle: carboxymethylcellulose (CMC).
The mark [2] stands for this setting: dose: 37.5 mg/kg/injection, schedule: Q01DX011 (sc), vehicle: steriod suspending solution.
Setting [3] is: dose: 300.0 mg/kg/injection, schedule: Q01DX011 (sc), vehicle: steriod suspending solution.
Where [4] appears, read: dose: 12.5 mg/kg/injection, schedule: Q01DX011 (ip), vehicle: carboxymethylcellulose (CMC).
The mark [5] stands for this setting: dose: 25.0 mg/kg/injection, schedule: Q01DX011 (ip), vehicle: carboxymethylcellulose (CMC).
The mark [6] stands for this setting: dose: 100.0 mg/kg/injection, schedule: Q01DX011 (ip), vehicle: carboxymethylcellulose (CMC).
Setting [7] is: dose: 60.0 mg/kg/injection, schedule: Q01DX011 (ip), vehicle: carboxymethylcellulose (CMC).
The mark [8] stands for this setting: dose: 250.0 mg/kg/injection, schedule: Q01DX011 (ip), vehicle: saline.

Where “and” joins values, the source holds several entries; their conditions need not be identical. Equal entries are not always repeated. Inconclusive results are not listed.

On to `S=c1nc[nH]c2nc[nH]c12`, for which the T/C (dose: 0.03 mg/kg/injection, schedule: Q01DX011 (ip), vehicle: carboxymethylcellulose (CMC)) is 55 % of control; the T/C (dose: 0.05 mg/kg/injection, schedule: Q01DX011 (ip), vehicle: carboxymethylcellulose (CMC)) was 61 % of control; the T/C (dose: 3.5 mg/kg/injection, schedule: Q01DX011 (ip), vehicle: carboxymethylcellulose (CMC)) is 21 % of control; the T/C (dose: 5.0 mg/kg/injection, schedule: Q01DX011 (ip), vehicle: carboxymethylcellulose (CMC)) was 2 % of control and 10 % of control and 12 % of control; the T/C (dose: 7.0 mg/kg/injection, schedule: Q01DX011 (ip), vehicle: carboxymethylcellulose (CMC)) is 13 % of control; the T/C under setting [1] was 9 % of control. For the same molecule, the T/C (dose: 42.0 mg/kg/injection, schedule: Q01DX011 (ip), vehicle: carboxymethylcellulose (CMC)) is 4 % of control and 7 % of control and 16 % of control.
As for `CNCc1ccccc1`, the T/C reads like this: (dose: 43.5 mg/kg/injection, schedule: Q01DX011 (ip), vehicle: saline) 110 % of control; (dose: 87.0 mg/kg/injection, schedule: Q01DX011 (ip), vehicle: saline) 100 % of control.
Turning to `CC(C)(CC(=O)O)CC(=O)OCC(=O)[C@@]1(O)CC[C@H]2[C@@H]3CCC4=CC(=O)C=C[C@]4(C)[C@H]3[C@@H](O)C[C@@]21C`, the T/C (dose: 9.0 mg/kg/injection, schedule: Q01DX011 (sc), vehicle: steriod suspending solution) was 61 % of control; the T/C (dose: 19.0 mg/kg/injection, schedule: Q01DX011 (sc), vehicle: steriod suspending solution) was 58 % of control; the T/C under setting [2] is 48 % of control; the T/C (dose: 38.0 mg/kg/injection, schedule: Q01DX011 (sc), vehicle: steriod suspending solution) is 50 % of control; the T/C (dose: 75.0 mg/kg/injection, schedule: Q01DX011 (sc), vehicle: steriod suspending solution) was 46 % of control and 47 % of control; the T/C (dose: 150.0 mg/kg/injection, schedule: Q01DX011 (sc), vehicle: steriod suspending solution) is 46 % of control and 47 % of control. Also, the T/C under setting [3] was 37 % of control and 38 % of control; the T/C (dose: 600.0 mg/kg/injection, schedule: Q01DX011 (sc), vehicle: steriod suspending solution) is 31 % of control.
Take `O=c1[nH]c2cc(Cl)c(Cl)cc2o1`: the T/C (dose: 19.0 mg/kg/injection, schedule: Q01DX011 (ip), vehicle: carboxymethylcellulose (CMC)) is 90 % of control; the T/C (dose: 37.5 mg/kg/injection, schedule: Q01DX011 (ip), vehicle: carboxymethylcellulose (CMC)) is 81 % of control; the T/C (dose: 75.0 mg/kg/injection, schedule: Q01DX011 (ip), vehicle: carboxymethylcellulose (CMC)) was 82 % of control; the T/C (dose: 150.0 mg/kg/injection, schedule: Q01DX011 (ip), vehicle: carboxymethylcellulose (CMC)) was 77 % of control.
On to `O=C(O)C1(NO)CCCC1`, for which the T/C was 98 % of control under setting [4]; 78 % of control under setting [5]; 18 % of control and 34 % of control under setting [6].
As to `O=C1C(=O)C(Cl)=C(Cl)C(Cl)=C1Cl`, the T/C was 108 % of control (dose: 15.0 mg/kg/injection, schedule: Q01DX011 (ip), vehicle: carboxymethylcellulose (CMC)); 90 % of control (dose: 30.0 mg/kg/injection, schedule: Q01DX011 (ip), vehicle: carboxymethylcellulose (CMC)); 89 % of control under setting [7].
`CN(C)N=Nc1n[nH]nc1C(N)=O`: the T/C was 75 % of control under setting [8] and 40 % of control (dose: 375.0 mg/kg/injection, schedule: Q01DX011 (ip), vehicle: saline).
As to `CS(=O)(=O)OCCCl`, the T/C runs as follows: under setting [1], 67 % of control; (dose: 28.0 mg/kg/injection, schedule: Q01DX011 (ip), vehicle: carboxymethylcellulose (CMC)) 70 % of control; (dose: 57.0 mg/kg/injection, schedule: Q01DX011 (ip), vehicle: carboxymethylcellulose (CMC)) 69 % of control; (dose: 115.0 mg/kg/injection, schedule: Q01DX011 (ip), vehicle: carboxymethylcellulose (CMC)) 60 % of control.
Turning to `CC1=C2C(=C[C@@](C)(CO)[C@@H]2O)C(=O)[C@](C)(O)C12CC2`, the T/C is 121 % of control (dose: 7.5 micrograms/kg/injection, schedule: Q01DX011 (ip), vehicle: carboxymethylcellulose (CMC)); 91 % of control (dose: 15.0 micrograms/kg/injection, schedule: Q01DX011 (ip), vehicle: carboxymethylcellulose (CMC)); 69 % of control (dose: 30.0 micrograms/kg/injection, schedule: Q01DX011 (ip), vehicle: carboxymethylcellulose (CMC)).
For `Oc1cc(CN(CCCl)CCCl)c(O)cc1CN(CCCl)CCCl`, the T/C reads like this: (dose: 0.44 mg/kg/injection, schedule: Q01DX011 (ip), vehicle: carboxymethylcellulose (CMC)) 63 % of control; (dose: 0.88 mg/kg/injection, schedule: Q01DX011 (ip), vehicle: carboxymethylcellulose (CMC)) 86 % of control.
For the molecule `CC(=O)O[C@]1(C(C)=O)CC[C@H]2[C@@H]3C[C@H](C)C4=CC(=O)C=C[C@]4(C)[C@@]3(F)[C@@H](O)C[C@@]21C`, the T/C was 35 % of control (dose: 25.0 mg/kg/injection, schedule: Q01DX011 (sc), vehicle: steriod suspending solution); 34 % of control under setting [2]; 11 % of control under setting [3].
Turning to `O=c1[nH]c(=O)n(C2CC(O)C(CO)O2)cc1F` (configuration not stated), the T/C is, setting by setting: (dose: 16.0 mg/kg/injection, schedule: Q01DX011 (ip), vehicle: saline) 92 % of control; under setting [5], 109 % of control; (dose: 32.0 mg/kg/injection, schedule: Q01DX011 (ip), vehicle: saline) 97 % of control; under setting [7], 72 % of control and 47 % of control; (dose: 84.0 mg/kg/injection, schedule: Q01DX011 (ip), vehicle: saline) 119 % of control; under setting [6], 4 % of control and 16 % of control. Moreover, the T/C reads like this: (dose: 120.0 mg/kg/injection, schedule: Q01DX011 (ip), vehicle: carboxymethylcellulose (CMC)) 18 % of control; (dose: 126.0 mg/kg/injection, schedule: Q01DX011 (ip), vehicle: saline) 16 % of control and 30 % of control.
In the case of `CS(=O)(=O)OCC(=O)NCCNC(=O)COS(C)(=O)=O`, the T/C (dose: 20.0 mg/kg/injection, schedule: Q01DX011 (ip), vehicle: carboxymethylcellulose (CMC)) is 93 % of control; the T/C (dose: 31.0 mg/kg/injection, schedule: Q01DX011 (ip), vehicle: saline) was 110 % of control; the T/C (dose: 40.0 mg/kg/injection, schedule: Q01DX011 (ip), vehicle: carboxymethylcellulose (CMC)) was 101 % of control; the T/C (dose: 62.0 mg/kg/injection, schedule: Q01DX011 (ip), vehicle: saline) was 108 % of control; the T/C (dose: 80.0 mg/kg/injection, schedule: Q01DX011 (ip), vehicle: carboxymethylcellulose (CMC)) was 52 % of control; the T/C (dose: 125.0 mg/kg/injection, schedule: Q01DX011 (ip), vehicle: saline) is 89 % of control. In addition, the T/C under setting [8] was 60 % of control.
Take `N#C[C@@H]1C2C=CC(CC2)[C@H]1C#N`: the T/C runs as follows: (dose: 0.5 mg/kg/injection, schedule: Q01DX011 (ip), vehicle: carboxymethylcellulose (CMC)) 97 % of control; (dose: 1.0 mg/kg/injection, schedule: Q01DX011 (ip), vehicle: carboxymethylcellulose (CMC)) 71 % of control; (dose: 2.0 mg/kg/injection, schedule: Q01DX011 (ip), vehicle: carboxymethylcellulose (CMC)) 83 % of control.
Take `S=P(N1CCOCC1)(N1CC1)N1CC1`: the T/C under setting [4] is 71 % of control and the T/C under setting [5] is 41 % of control.
Consider `COc1ccc(-c2coc3cc(OC)c(OC)c(OC)c3c2=O)cc1`, for which the T/C is, setting by setting: (dose: 50.0 mg/kg/injection, schedule: Q01DX011 (sc), vehicle: steriod suspending solution) 299 % of control; (dose: 100.0 mg/kg/injection, schedule: Q01DX011 (sc), vehicle: steriod suspending solution) 250 % of control; (dose: 200.0 mg/kg/injection, schedule: Q01DX011 (sc), vehicle: steriod suspending solution) 275 % of control.
As for `C=CCn1c(=O)n(CC=C)c(=O)n(CC=C)c1=O`, the T/C runs as follows: (dose: 22.5 mg/kg/injection, schedule: Q01DX011 (ip), vehicle: saline) 77 % of control; (dose: 45.0 mg/kg/injection, schedule: Q01DX011 (ip), vehicle: saline) 103 % of control; (dose: 90.0 mg/kg/injection, schedule: Q01DX011 (ip), vehicle: saline) 64 % of control; (dose: 180.0 mg/kg/injection, schedule: Q01DX011 (ip), vehicle: saline) 82 % of control.
As to `O=C(NO)c1ccncc1`, the T/C runs as follows: under setting [8], 79 % of control; (dose: 500.0 mg/kg/injection, schedule: Q01DX011 (ip), vehicle: saline) 78 % of control and 86 % of control; (dose: 750.0 mg/kg/injection, schedule: Q01DX011 (ip), vehicle: saline) 42 % of control and 48 % of control; (dose: 950.0 mg/kg/injection, schedule: Q01DX011 (ip), vehicle: saline) 7 % of control.
